Experiment [1] concerns the target T1, DgoR (WT DgoR-6XHis) (Escherichia coli, UniProt P31460).
T1 sequence (P31460 1-229): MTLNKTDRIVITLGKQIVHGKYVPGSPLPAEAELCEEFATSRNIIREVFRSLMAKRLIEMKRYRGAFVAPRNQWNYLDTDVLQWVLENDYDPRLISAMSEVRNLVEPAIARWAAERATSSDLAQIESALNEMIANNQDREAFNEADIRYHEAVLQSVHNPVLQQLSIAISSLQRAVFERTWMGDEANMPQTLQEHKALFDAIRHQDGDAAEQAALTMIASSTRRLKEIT
Briefly: label-free microscale thermophoresis. Format: binding.

The target in experiment [2] is T2, DgoR (WT DgoR-6XHis) (Escherichia coli, UniProt P31460, S171L).
T2 sequence (P31460 1-229 S171L): T1 sequence (P31460 1-229) with S171L
Briefly: label-free microscale thermophoresis. Format: binding.

Experiment [3] has as its target T3, DgoR (WT DgoR-6XHis) (Escherichia coli, UniProt P31460, A97V).
T3 sequence (P31460 1-229 A97V): T1 sequence (P31460 1-229) with A97V
Kind of experiment: label-free microscale thermophoresis. Format: binding.

In experiment [4] the target is T4, DgoR (WT DgoR-6XHis) (Escherichia coli, UniProt P31460, M188I).
T4 sequence (P31460 1-229 M188I): T1 sequence (P31460 1-229) with M188I
Briefly: label-free microscale thermophoresis. Format: binding.

The target of experiment [5] is DgoR-6XHis (wild-type DgoR, transcriptional repressor of D-galactonate metabolism in Escherichia coli) (Escherichia coli) (UniProt P31460). Briefly: SEC.

Residue numbers refer to the chain shown, from its start.

As for `O=C(O)[C@H](O)[C@@H](O)[C@@H](O)[C@H](O)CO` [D-galactonate], the Kd was 8.4 ± 1.3 µM on DgoR (WT DgoR-6XHis) [1], 20.1 ± 0.6 µM at DgoR (WT DgoR-6XHis) [2], 3.3 ± 0.3 µM at DgoR (WT DgoR-6XHis) [3] and 11.3 ± 0.9 µM at DgoR (WT DgoR-6XHis) [4].
With “DgoR-6XHis (wild-type DgoR, transcriptional repressor of D-galactonate metabolism in Escherichia coli) (from UniProt P31460 1-229) (natural protein)”, in experiment [5], the stoichiometry N turned out to be 2.

Source of the values: PMC11705089 (Nucleic Acids Research, 2025).
